Experimental data from paper PMC11240139, “Exploring the antitumor potential of novel quinoline derivatives via tubulin polymerization inhibition in breast cancer; design, synthesis and molecular docking” (RSC Advances, 2024).

Tests used:
Test in all cases: NCI-60 SRB cytotoxicity screen
Format in all cases: cell-based
[1] = test system: CCRF-CEM (leukemia); conditions: Homo sapiens, single dose 10 μM, read-out: growth inhibition (GI%)
[2] = test system: MOLT-4 (leukemia); conditions: Homo sapiens; MOLT-4, single dose 10 μM; read-out: growth inhibition (GI%)
[3] = test system: A549/ATCC (non-small cell lung cancer); conditions: Homo sapiens, single dose 10 μM, read-out: growth inhibition (GI%)
[4] = test system: EKVX (non-small cell lung cancer); conditions: Homo sapiens, single dose 10 μM, read-out: growth inhibition (GI%)
[5] = test system: HOP-92 (non-small cell lung cancer); conditions: Homo sapiens; HOP-92, single dose 10 μM; read-out: growth inhibition (GI%)
[6] = test system: NCI-H226 (non-small cell lung cancer); conditions: Homo sapiens; NCI-H226, single dose 10 μM; read-out: growth inhibition (GI%)
[7] = test system: NCI-H322M (non-small cell lung cancer); conditions: Homo sapiens, single dose 10 μM, read-out: growth inhibition (GI%)
[8] = test system: NCI-H460 (non-small cell lung cancer); conditions: Homo sapiens; NCI-H460, single dose 10 μM; read-out: growth inhibition (GI%)
[9] = test system: HCT-15 (colon cancer); conditions: Homo sapiens; HCT-15, single dose 10 μM; read-out: growth inhibition (GI%)
[10] = test system: HT29 (colon cancer); conditions: Homo sapiens, HT-29; HT29, single dose 10 μM; read-out: growth inhibition (GI%)
[11] = test system: SW-620 (colon cancer); conditions: Homo sapiens; SW-620, single dose 10 μM; read-out: growth inhibition (GI%)
[12] = test system: SF-295 (CNS cancer); conditions: Homo sapiens; SF-295, single dose 10 μM; read-out: growth inhibition (GI%)
[13] = test system: SF-539 (CNS cancer); conditions: Homo sapiens; SF-539, single dose 10 μM; read-out: growth inhibition (GI%)
[14] = test system: SNB-75 (CNS cancer); conditions: Homo sapiens, SNB-75, SNB-75, single dose 10 μM; read-out: growth inhibition (GI%)
[15] = test system: U251 (CNS cancer); conditions: Homo sapiens, U-251; U251, single dose 10 μM; read-out: growth inhibition (GI%)
[16] = test system: LOX IMVI (melanoma); conditions: Homo sapiens, single dose 10 μM, read-out: growth inhibition (GI%)
[17] = test system: MALME-3M (melanoma); conditions: Homo sapiens, single dose 10 μM, read-out: growth inhibition (GI%)
[18] = test system: M14 (melanoma); conditions: Homo sapiens; M14, single dose 10 μM; read-out: growth inhibition (GI%)
[19] = test system: MDA-MB-435 (melanoma); conditions: Homo sapiens, MDA-MB-435, read-out: growth inhibition (GI%);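 also: growth inhibition in percent at a single 10 µM dose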
[20] = test system: SK-MEL-2 (melanoma); conditions: Homo sapiens; SK-MEL-2, single dose 10 μM; read-out: growth inhibition (GI%)
[21] = test system: UACC-257 (melanoma); conditions: Homo sapiens; UACC-257, single dose 10 μM; read-out: growth inhibition (GI%)
[22] = test system: OVCAR-4 (ovarian cancer); conditions: Homo sapiens; OVCAR-4, single dose 10 μM; read-out: growth inhibition (GI%)
[23] = test system: OVCAR-5 (ovarian cancer); conditions: Homo sapiens; OVCAR-5, single dose 10 μM; read-out: growth inhibition (GI%)
[24] = test system: OVCAR-8 (ovarian cancer); conditions: Homo sapiens; OVCAR-8, single dose 10 μM; read-out: growth inhibition (GI%)
[25] = test system: NCI/ADR-RES (ovarian cancer); conditions: Homo sapiens, single dose 10 μM, read-out: growth inhibition (GI%)
[26] = test system: SK-OV-3 (ovarian cancer); conditions: Homo sapiens; SK-OV-3, single dose 10 μM; read-out: growth inhibition (GI%)
[27] = test system: 786-0 (renal cancer); conditions: Homo sapiens; 786-0, single dose 10 μM; read-out: growth inhibition (GI%)
[28] = test system: A498 (renal cancer); conditions: Homo sapiens; A498, single dose 10 μM; read-out: growth inhibition (GI%)
[29] = test system: ACHN (renal cancer); conditions: Homo sapiens, single dose 10 μM, read-out: growth inhibition (GI%)
[30] = test system: CAKI-1 (renal cancer); conditions: Homo sapiens; CAKI-1, single dose 10 μM; read-out: growth inhibition (GI%)
[31] = test system: SN12C (renal cancer); conditions: Homo sapiens, single dose 10 μM, read-out: growth inhibition (GI%)
[32] = test system: TK-10 (renal cancer); conditions: Homo sapiens; TK-10, single dose 10 μM; read-out: growth inhibition (GI%)
[33] = test system: UO-31 (renal cancer); conditions: Homo sapiens; UO-31, single dose 10 μM; read-out: growth inhibition (GI%)
[34] = test system: PC-3 (prostate cancer); conditions: PC-3, single dose 10 μM; read-out: growth inhibition (GI%)
[35] = test system: MDA-MB-231/ATCC (breast cancer); conditions: Homo sapiens, MDA-MB-231, read-out: growth inhibition (GI%);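 also: growth inhibition in percent at a single 10 µM dose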

For `CCc1cccc2cc(-c3cc(-c4ccc(Br)cc4)[nH]c(=O)c3C#N)c(Cl)nc12` [Compound 4e, 6-(4-Bromophenyl)-4-(2-chloro-8-ethylquinolin-3-yl)-2-oxo-1,2-dihydropyridine-3-carbonitrile], the inhibition at 10 µM [1] was < 10%, the inhibition at 10 µM [2] was < 10% and the inhibition at 10 µM [3] was < 10%. The inhibition at 10 µM [4] was < 10%, the inhibition at 10 µM [5] was < 10% and the inhibition at 10 µM [6] was < 10%. The inhibition at 10 µM [7] was < 10%, the inhibition at 10 µM [8] was < 10% and the inhibition at 10 µM [9] was < 10%. The inhibition at 10 µM [10] was < 10%, the inhibition at 10 µM [11] was < 10% and the inhibition at 10 µM [12] was < 10%. For the same compound, the inhibition at 10 µM [13] was < 10%, the inhibition at 10 µM [14] was < 10% and the inhibition at 10 µM [15] was < 10%. For the same compound, the inhibition at 10 µM [16] was < 10%, the inhibition at 10 µM [17] was < 10% and the inhibition at 10 µM [18] was < 10%. For the same compound, the inhibition at 10 µM [19] was < 10%, the inhibition at 10 µM [20] was < 10% and the inhibition at 10 µM [21] was < 10%. For the same compound, the inhibition at 10 µM [22] was 10.8%, the inhibition at 10 µM [23] was < 10% and the inhibition at 10 µM [24] was < 10%. For the same compound, the inhibition at 10 µM [25] was < 10%, the inhibition at 10 µM [26] was 11.7% and the inhibition at 10 µM [27] was < 10%. For the same compound, the inhibition at 10 µM [28] was < 10%, the inhibition at 10 µM [29] was < 10% and the inhibition at 10 µM [30] was 17.6%. For the same compound, the inhibition at 10 µM [31] was < 10%, the inhibition at 10 µM [32] was < 10% and the inhibition at 10 µM [33] was 17.8%. The inhibition at 10 µM [34] was < 10% and the inhibition at 10 µM [35] was < 10%.
With `CCc1cccc2cc(-c3cc(-c4ccc(Br)cc4)[nH]c(=S)c3C#N)c(Cl)nc12` [Compound 5e, 6-(4-Bromophenyl)-4-(2-chloro-8-ethylquinolin-3-yl)-2-thioxo-1,2-dihydropyridine-3-carbonitrile] the inhibition at 10 µM [1] was < 10%, the inhibition at 10 µM [2] was < 10% and the inhibition at 10 µM [3] was < 10%. For the same compound, the inhibition at 10 µM [4] was < 10%, the inhibition at 10 µM [5] was < 10% and the inhibition at 10 µM [6] was < 10%. The inhibition at 10 µM [7] was < 10%, the inhibition at 10 µM [8] was < 10% and the inhibition at 10 µM [9] was < 10%. For the same compound, the inhibition at 10 µM [10] was < 10%, the inhibition at 10 µM [11] was < 10% and the inhibition at 10 µM [12] was < 10%. The inhibition at 10 µM [13] was < 10%, the inhibition at 10 µM [14] was 19.8% and the inhibition at 10 µM [15] was < 10%. For the same compound, the inhibition at 10 µM [16] was < 10%, the inhibition at 10 µM [17] was < 10% and the inhibition at 10 µM [18] was 11%. The inhibition at 10 µM [19] was < 10%, the inhibition at 10 µM [20] was < 10% and the inhibition at 10 µM [21] was < 10%. For the same compound, the inhibition at 10 µM [22] was < 10%, the inhibition at 10 µM [23] was < 10% and the inhibition at 10 µM [24] was < 10%. For the same compound, the inhibition at 10 µM [25] was < 10%, the inhibition at 10 µM [26] was 11.2% and the inhibition at 10 µM [27] was < 10%. The inhibition at 10 µM [28] was < 10%, the inhibition at 10 µM [29] was < 10% and the inhibition at 10 µM [30] was 20.1%. For the same compound, the inhibition at 10 µM [31] was < 10%, the inhibition at 10 µM [32] was < 10% and the inhibition at 10 µM [33] was 24.1%. For the same compound, the inhibition at 10 µM [34] was < 10% and the inhibition at 10 µM [35] was 12.9%.
In the case of `CCc1cccc2cc(C3C=C(c4ccc(OC)cc4)NC(=S)N3)c(Cl)nc12` (stereo not drawn) [Compound 6a, 4-(2-Chloro-8-ethylquinolin-3-yl)-6-(4-methoxyphenyl)-3,4-dihydropyrimidine-2(1H)-thione], the inhibition at 10 µM [1] is reported as < 10%, the inhibition at 10 µM [2] is reported as < 10% and the inhibition at 10 µM [3] is reported as < 10%. For the same compound, the inhibition at 10 µM [4] was < 10%, the inhibition at 10 µM [5] was < 10% and the inhibition at 10 µM [6] was < 10%. For the same compound, the inhibition at 10 µM [7] was < 10%, the inhibition at 10 µM [8] was < 10% and the inhibition at 10 µM [9] was < 10%. The inhibition at 10 µM [10] was < 10%, the inhibition at 10 µM [11] was < 10% and the inhibition at 10 µM [12] was < 10%. For the same compound, the inhibition at 10 µM [13] was < 10%, the inhibition at 10 µM [14] was 14.9% and the inhibition at 10 µM [15] was < 10%. For the same compound, the inhibition at 10 µM [16] was < 10%, the inhibition at 10 µM [17] was < 10% and the inhibition at 10 µM [18] was 13.2%. For the same compound, the inhibition at 10 µM [19] was < 10%, the inhibition at 10 µM [20] was < 10% and the inhibition at 10 µM [21] was < 10%. For the same compound, the inhibition at 10 µM [22] was < 10%, the inhibition at 10 µM [23] was < 10% and the inhibition at 10 µM [24] was < 10%. The inhibition at 10 µM [25] was < 10%, the inhibition at 10 µM [26] was 14.9% and the inhibition at 10 µM [27] was < 10%. The inhibition at 10 µM [28] was < 10%, the inhibition at 10 µM [29] was < 10% and the inhibition at 10 µM [30] was 16.2%. For the same compound, the inhibition at 10 µM [31] was < 10%, the inhibition at 10 µM [32] was < 10% and the inhibition at 10 µM [33] was 18.6%. The inhibition at 10 µM [34] was < 10% and the inhibition at 10 µM [35] was < 10%.
